Laboratory results reported in PubChem BioAssay (NCI).
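Growth conditions: 96-well plates. Treatment: test compound, 48 hours, 5 concentrations. Analysis: linear interpolation between bracketing concentrations; unreached endpoints set to highest concentration. GI50 is the concentration that inhibits growth by half. TGI is the concentration that stops growth completely.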 *1 amine or outer side, *2 acyl side, *3 side chain or, on linkers, in order; H or OH if unused. Where a SMILES comes first, the peptide text is derived from it. The star is where a group is joined. γGlu = O=C(O)[CH](CCC(=O)[*:2])N[*:1]; Cbz = O=C(OCc1ccccc1)*; NHOH = ON*

Experiments:
Test in all cases: DTP human tumour cell line panel, 48 h
OVCAR-3 ovarian = system: OVCAR-3 ovarian
RPMI-8226 leukemia = system: RPMI-8226 leukemia
HL-60(TB) leukemia = system: HL-60(TB) leukemia
MDA-N = system: MDA-N
A498 renal = system: A498 renal
ACHN renal = system: ACHN renal
HS 578T breast = system: HS 578T breast
HT29 colon = system: HT29 colon
LOX IMVI melanoma = system: LOX IMVI melanoma
T-47D breast = system: T-47D breast

SMILES	TGI (OVCAR-3 ovarian) [µM]	TGI (RPMI-8226 leukemia) [µM]	TGI (HL-60(TB) leukemia) [µM]	TGI (MDA-N) [µM]	TGI (A498 renal) [µM]	TGI (ACHN renal) [µM]	TGI (HS 578T breast) [µM]	TGI (HT29 colon) [µM]	TGI (LOX IMVI melanoma) [µM]	TGI (T-47D breast) [µM]	GI50 (OVCAR-3 ovarian) [µM]	GI50 (RPMI-8226 leukemia) [µM]	GI50 (HL-60(TB) leukemia) [µM]	GI50 (T-47D breast) [µM]	GI50 (A498 renal) [µM]	GI50 (ACHN renal) [µM]	GI50 (HS 578T breast) [µM]	GI50 (HT29 colon) [µM]	GI50 (LOX IMVI melanoma) [µM]
O=C(CN1CCCCC1)c1ccc2[nH]c(=O)oc2c1	> 100	> 100	> 100	> 100	> 100	> 100	> 100	> 100	> 100	–	–	–	–	–	–	–	–	–	–
CC(=O)Oc1ccc2c(c1)O/C(=C\c1ccc(N(C)C)cc1)C2=O	–	> 100	> 100	> 100	–	> 100	60.8	> 100	–	> 100	–	–	–	–	–	–	–	–	–
CCOC(=O)c1nc2ccccc2nc1Nc1cc(OC)c(OC)c(OC)c1	> 100	> 100	> 100	> 100	–	> 100	> 100	> 100	–	> 100	–	–	–	–	–	–	–	–	–
COC(=O)C12C(=O)CC3CCC1C32C(=O)OC (configuration not stated)	> 100	> 100	–	> 100	–	> 100	–	> 100	> 100	–	–	–	–	–	–	–	–	–	–
CC(C)C(Sc1nc(-c2ccccc2)c(-c2ccccc2)[nH]1)C(=O)N/N=C/c1ccc(Cl)cc1 (configuration not stated)	35.5	65.4	56.6	–	43.2	> 100	–	36.9	28.9	–	–	–	–	–	–	–	–	–	–
Cc1cccc(C)c1NC(=S)N/C=C(\C#N)C(N)=O	> 100	> 100	–	> 100	–	> 100	> 100	> 100	> 100	–	–	–	–	–	–	–	–	–	–
COC(=O)C1=C(C(=O)OC)C23CC4CCC2(C(=O)C1O3)C4(C)C (configuration not stated)	> 100	> 100	52.6	–	> 100	> 100	–	> 100	> 100	–	–	–	–	–	–	–	–	–	–
CCCCCCCCCCCCCOCCOCCOCCCCC(O)CCCCCCCCCC1=C[C@H](C)OC1=O (some centres not stated)	44.2	35.9	16	45.3	–	> 100	47.6	57.6	42.6	> 100	–	–	–	–	–	–	–	–	–
Cc1ccccc1NC(=O)C(=O)C(C1OC(=O)c2ccccc21)[N+](=O)[O-] (configuration not stated)	–	> 100	> 100	–	> 100	> 100	–	> 100	> 100	–	–	–	–	–	–	–	–	–	–
OC1C2CN3CCN(C2)CC1(c1ccccc1)C3 (configuration not stated)	> 100	> 100	> 100	> 100	> 100	> 100	> 100	> 100	> 100	–	–	–	–	–	–	–	–	–	–
COc1ccc(/C=C2\C(=O)N(C(=O)c3ccc(NC(C)=O)cc3)N=C2C)cc1OC	> 100	> 100	> 100	–	–	> 100	–	> 100	> 100	–	–	–	–	–	–	–	–	–	–
Cc1cccc(-c2cc(=O)c3cccnc3[nH]2)c1	> 100	> 100	0.654	–	–	> 100	> 100	2.93	> 100	–	–	–	–	–	–	–	–	–	–
CCN1CC2=C(OC(N)=C(C#N)C2c2ccc(Cl)cc2)/C(=C/c2ccc(Cl)cc2)C1 (configuration not stated)	> 100	85.1	> 100	> 100	37.5	45.9	> 100	> 100	> 100	–	–	–	–	–	–	–	–	–	–
O=[N+]([O-])C(/C(Cl)=C(/Cl)N1CCOCC1)=C1\Nc2ccccc2O1	> 100	> 100	–	–	> 100	> 100	> 100	> 100	–	> 100	–	–	–	–	–	–	–	–	–
COC(=O)C12CCCN1CCC2	> 100	–	–	> 100	–	> 100	–	> 100	> 100	> 100	–	–	–	–	–	–	–	–	–
CC(C)(C)c1ccc(O)c(C(O)c2ccccn2)c1 (configuration not stated)	> 100	> 100	> 100	> 100	–	> 100	> 100	> 100	> 100	80.9	–	–	–	–	–	–	–	–	–
COC(=O)/C(=C(/C)c1ccco1)P(=O)(OC)OC	> 100	> 100	–	–	> 100	> 100	> 100	> 100	> 100	> 100	–	–	–	–	–	–	–	–	–
NC(CCC(=O)NC(CCC(=O)NO)C(=O)NCC(=O)O)C(=O)O (configuration not stated) (γGlu-Glu(NHOH)-Gly-OH; configuration not given here)	> 100	> 100	> 100	> 100	> 100	> 100	–	> 100	> 100	> 100	–	–	–	–	–	–	–	–	–

SMILES	TGI (OVCAR-3 ovarian) [µM]	TGI (RPMI-8226 leukemia) [µM]	TGI (HL-60(TB) leukemia) [µM]	TGI (MDA-N) [µM]	TGI (A498 renal) [µM]	TGI (ACHN renal) [µM]	TGI (HS 578T breast) [µM]	TGI (HT29 colon) [µM]	TGI (LOX IMVI melanoma) [µM]	TGI (T-47D breast) [µM]	GI50 (OVCAR-3 ovarian) [µM]	GI50 (RPMI-8226 leukemia) [µM]	GI50 (HL-60(TB) leukemia) [µM]	GI50 (T-47D breast) [µM]	GI50 (A498 renal) [µM]	GI50 (ACHN renal) [µM]	GI50 (HS 578T breast) [µM]	GI50 (HT29 colon) [µM]	GI50 (LOX IMVI melanoma) [µM]
COc1ccccc1C1C(C#N)=C(N)SC(N)=C1C#N	> 100	32.9	> 100	–	> 100	> 100	> 100	> 100	> 100	> 100	62.4	12.3	50.3	35.5	> 100	65.1	> 100	37.4	50.2
COc1ccc(-c2nc(-c3nc4cc(Cl)c(Cl)cc4[nH]3)c3ccccn23)cc1	> 100	> 100	> 100	–	> 100	–	7.02	> 100	> 100	> 100	3.18	3.74	> 100	4.06	4.2	–	2.68	4.42	3.6
CN(C(=O)Cc1cc(Cl)c(Cl)cc1NC(=O)CCCN)[C@H]1CCCC[C@@H]1N1CCCC1	> 100	> 100	52.8	30.7	32.4	> 100	–	47.7	39.3	> 100	–	–	–	–	–	–	–	–	–
C[C@]12C(=O)OC[C@H](c3ccccc3)N1C(=O)N(Cc1ccccc1)[C@@H]2CO	> 100	–	> 100	> 100	> 100	> 100	> 100	> 100	> 100	–	–	–	–	–	–	–	–	–	–
CN1CCN(c2n[nH]c(=O)c3c2nnn3Cc2ccccc2)CC1	> 100	> 100	> 100	40.1	–	> 100	–	> 100	> 100	–	–	–	–	–	–	–	–	–	–
CCOC(=O)CCC(NC(=O)C(CC(=O)OC)NC(=O)OCc1ccccc1)C(=O)NC(CC(=O)OC)C(=O)NC(CCC(=O)OCC)C(=O)NC(CC(=O)OC)C(=O)NC(CCC(=O)OCC)C(=O)NC(CC(=O)OCC)C(=O)OCC (configuration not stated) (Cbz-D(OMe)E(OEt)D(OMe)E(OEt)D(OMe)E(OEt)D(OEt)-OEt; configuration not given here)	> 100	> 100	> 100	> 100	> 100	> 100	–	> 100	> 100	> 100	–	–	–	–	–	–	–	–	–
CC(C)NC1CCCCC2c3ccccc3C12O (configuration not stated)	–	> 100	> 100	–	–	> 100	–	> 100	> 100	–	–	–	–	–	–	–	–	–	–
CCO/C(O)=c1/s/c(=C2/SC(=S)N(c3ccc(C)cc3)C2=O)n(-c2ccccc2)c1=N	> 100	> 100	> 100	> 100	> 100	> 100	66.8	> 100	–	–	–	–	–	–	–	–	–	–	–
C#CCOC(=O)C=[N+]=[N-]	> 10	> 10	> 10	> 10	> 10	> 10	–	> 10	> 10	> 10	–	–	–	–	–	–	–	–	–
[N-]=[N+]=NC1C(Cl)C(=O)NC(=O)N1[C@H]1C[C@H](O)[C@@H](CO)O1 (some centres not stated)	> 100	> 100	> 100	–	> 100	> 100	–	> 100	> 100	–	–	71.9	–	–	–	–	–	–	–
Cc1cc2c3c(c1)S(=O)(=O)c1cc(Cl)ccc1N3CCC2	> 100	–	> 100	> 100	> 100	> 100	> 100	> 100	> 100	–	–	–	–	–	–	–	–	–	–
CCN(CC)c1c(-c2c(OC(C)C)c(=O)c2=O)c(=O)n2ccsc2c1OC(C)=O	> 100	> 100	> 100	> 100	> 100	> 100	> 100	> 100	> 100	–	–	–	–	–	–	–	–	–	–
O=NN(CC1(O)OCC(O)C(O)C1O)C(Cc1c[nH]c2ccccc12)C(=O)O (configuration not stated)	> 100	> 100	> 100	–	> 100	> 100	–	> 100	> 100	–	–	–	–	–	–	–	–	–	–
COc1ccc(OC)c([N+](=O)[O-])c1-c1nc2sc(Cl)cn2c1/C=N/N=C(N)N	40.4	> 100	29	–	33.7	86.3	51.7	34	> 100	42.7	–	–	–	–	–	–	–	–	–
Cc1cnoc1/N=C1\C=C(Nc2oncc2C)C(=O)c2ccccc21	> 100	> 100	> 100	–	> 100	> 100	–	> 100	> 100	–	–	–	–	–	–	–	–	–	–
Cc1c2ccccc2c(=O)n2c(-c3ccccn3)cccc12	> 100	> 100	> 100	–	> 100	> 100	–	> 100	> 100	–	–	–	–	–	–	–	–	–	–
CC1(N2CCOCC2)CC2C(=[N+]1[O-])CCC/C2=N/O (configuration not stated)	> 100	–	–	> 100	–	> 100	> 100	> 100	> 100	> 100	–	–	–	–	–	–	–	–	–
